From patent US10640545B2 (THE GOVERNORS OF THE UNIVERSITY OF ALBERTA, priority 2017, dated 2020) come the findings set out here.

For assay [1], the target named is T1, recombinant human APJ-Ga16 receptor (Homo sapiens, UniProt P35414).
T1 construct: host or cells: Chem-5-APJ cells
T1 sequence (P35414 1-380): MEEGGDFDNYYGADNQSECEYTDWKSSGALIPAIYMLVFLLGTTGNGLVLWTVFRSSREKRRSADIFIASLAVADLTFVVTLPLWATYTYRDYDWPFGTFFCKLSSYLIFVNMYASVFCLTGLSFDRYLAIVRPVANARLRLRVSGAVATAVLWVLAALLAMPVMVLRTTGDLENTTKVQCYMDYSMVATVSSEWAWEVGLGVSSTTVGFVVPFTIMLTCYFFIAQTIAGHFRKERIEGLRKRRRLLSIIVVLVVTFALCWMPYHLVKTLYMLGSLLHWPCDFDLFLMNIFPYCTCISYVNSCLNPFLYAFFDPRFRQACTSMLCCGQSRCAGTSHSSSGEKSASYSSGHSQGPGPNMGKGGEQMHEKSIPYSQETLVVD
The experiment in a line: Ca2+ mobilization assay (FLIPR, Chem-5-APJ cells). Format: cell-based. Particulars: among peptides 56-59. The method, then: To study the extent to which the newly derived peptides trigger APJ-receptor activation, a fluorescence coupled calcium release assay including a recombinant human APJ-Ga16 receptor cell line was used.
Chem-5-APJ cells (Millipore, USA) were seeded (30 000 cells/well) into Nunclon Delta Surface 96-well, clear-bottom microtitre plates (Thermo Scientific, Denmark) 24 hours prior to assay. Cells were loaded for 1 hour with FLIPR Calcium 6-QF fluorescent indicator dye (Molecular Devices, USA) in assay buffer [Hanks balanced salt solution (HBSS), 20 mM HEPES, 0.2% DMSO, 2.5 mM probenecid, pH 7.6], washed three times with assay buffer, then returned to the incubator for 10 min before assay on a fluorimetric imaging plate reader (FLIPR; Molecular Devices, Sunnyvale, Calif., USA). Maximum change in fluorescence over baseline was used to determine agonist response. Dose—response curve data were fitted to a four-parameter logistic equation using PRISM (Graph Pad, USA) from which pEC50 values were calculated. FIGS. 14A-G show the concentration response curves of apelin peptides.

The subject of another assay is anesthetized mice. The experiment in a line: Blood pressure assay in anesthetized mice. The assay is classed as in vivo. Particulars: 1.4 μM/kg body weight injected. In short, it runs like this:
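Mice were anaesthetized with 1.5% isoflurane/oxygen and kept at 36 °C. Peptide (1.4 μM/kg body weight) or saline was injected via the right jugular vein. Arterial pressure and heart rate were recorded continuously through a catheter in the aorta via the right carotid artery over 60 min and reported as SBP, DBP, MABP and HR.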

Where a SMILES comes first, the peptide text is derived from it. [ ]: non-standard residue; d: D form. The star is where a group is joined. Phe(4-Br) = N[C@@H](Cc1ccc(Br)cc1)C(=O)O; Palmitoyl = CCCCCCCCCCCCCCCC(=O)*; NMeL = CN[C@@H](CC(C)C)C(=O)O; Nle = CCCC[C@H](N)C(=O)O; Aib = CC(C)(N)C(=O)O

As for `CCCCCCCCCCCCCCCC(=O)N[C@@H](CCCCN)C(=O)N[C@@H](Cc1ccccc1)C(=O)N[C@@H](CCCNC(=N)N)C(=O)N[C@@H](CCCNC(=N)N)C(=O)N[C@@H](CCC(N)=O)C(=O)N[C@@H](CCCNC(=N)N)C(=O)N1CCC[C@H]1C(=O)N[C@@H](CCCNC(=N)N)C(=O)N(C)[C@@H](CC(C)C)C(=O)N[C@@H](CO)C(=O)N[C@@H](Cc1c[nH]cn1)C(=O)N[C@@H](CCCCN)C(=O)NCC(=O)N1CCC[C@H]1C(=O)N[C@@H](CCCC)C(=O)NC(C)(C)C(=O)N[C@@H](Cc1ccc(Br)cc1)C(=O)O` [Peptide 58] (Palmitoyl-KFRRQRPR[NMeL]SHKGP[Nle][Aib][Phe(4-Br)]-OH; C-terminus assumed), the “Ca2+ mobilization (in words)” value in assay [1] was “lowest Ca^2+ mobilization”. Also, the “effect on heart rate (HR)” value in the assay on anesthetized mice is recorded as “heart rate increasing effect is restored”.
